Laboratory results taken from patent US9212196B2, “Hypophosphorous acid derivatives having antihyperalgic activity and biological applications thereof” (UNIVERSITE PARIS DESCARTES, priority 2011, dated 2015).
“Also recorded” adds a separate entry of the source.

Key:
[1] = tested on: model of inflammation induced by carrageenan in C57BL6 mice; assay: Von Frey test in carrageenan inflammation model in mice; assay type: in vivo, mouse
Method: FIG. 2 illustrates the effect of intrathecal administration of derivative 2 on the vocalization threshold to paw pressure in the carrageenan inflammatory pain model (effect of derivative 2 (0.5, 1, 5, 10 μg/rat, i.t.) on time-course of vocalization threshold to paw pressure). Morphine (10 μg/rat, i.t.) is used as a positive control.
Adult male Sprague-Dawley rats weighting 175-200 g were purchased from Charles River. C57/BL6 mice were from Elevage Janvier, and homozygous mGlu4 (−/−) and wild-type (+/+) littermates were generated from crosses between heterozygous animals. Animals were housed under controlled environmental conditions (22° C.; 55% humidity) and kept under a 12/12 h light/dark cycle, with food and water ad libitum for a week prior to start the experiments in order to acclimatize. Animal care and experiments were carried out in accordance with the Committee for Research and Ethical Issues of the IASP (Zimmermann M., 1983; Goudet C., 2008).
Mechanical allodynia and hyperalgesia were assessed using the von Frey hair filaments of 3 different bending forces (0.07 g, 0.6 g, 1.4 g). For each filament, 5 stimuli were applied with an interval of 3-5 s.

mGlu6 = mGlu6 (Homo sapiens (Human), UniProt O15303); assay: Agonist activity on mGlu6 in transfected HEK293 cells, intracellular calcium release (Fluo4-AM); assay type: cell-based; details: transfected cells, calcium release; read-out: mGlu6 EC50 μM (n)
Description: The EC50's are compared to those of L-AP4 (L-2-amino-4-phosphonobutyric acid) used as a reference.
Metabotropic glutamate receptors were transiently transfected in HEK293 cells by electroporation as described elsewhere (Brabet I. et al., 1998) and plated in 96-well microplates. The high affinity glutamate transporter EAAC1 was co-transfected with the receptor in order to avoid any influence of glutamate released by the cells in the assay medium. In the experiments carried out by the inventors, Group-III mGluRs were co-transfected with a chimeric G-protein which couples the activation of the receptor to the phospholipase-C (PLC) pathway. Thus receptor activation induces production of inositol phosphate (IP) which in turn induces intracellular Ca^2+ release. Receptor activity was then determined by measurement of the IP production or Ca release as already described (Goudet C. et al., PNAS 2004). For intracellular calcium measurements, cells expressing mGluRs were loaded with Ca2+-sensitive fluorescent dye Fluo-4 AM (Invitrogen, Cergy-Pontoise, France) dissolved in Hanks' balanced salt solution (HBSS, Invitrogen, Cergy-Pontoise, France) containing 2.5 mM Probenicid (Sigma-Aldrich Chemie, Saint-Quentin Fallavier, France) for 1 h at 37° C., then washed and incubated with HBSS containing probenecid. A drug plate was prepared with the various concentrations of agonist to be tested and drug solution was added in each well after 20 s of recording. Fluorescence signals (excitation 485 nm, emission 525 nm) were measured by using the fluorescence microplate reader Flexstation III (Molecular Devices, Saint-Grégoire, France) at sampling intervals of 1.5 s for 60 s. All points are realized in triplicate.
The dose-response curves were fitted using the GraphPad Prism program and the following equation: y=[(ymax−ymin)/(1+(x/EC50)n)]+ymin where EC50 is the concentration of the compound necessary to obtain the half maximal effect and n is the Hill coefficient.

[2] = tested on: CCI neuropathic pain model; assay: Paw pressure test in CCI neuropathic pain model in rats; assay type: in vivo, rat
Method: After the induction period of the neuropathy or inflammation, various amounts of derivative 2 dissolved in serum have been injected in rats, (from 0.5 to 15 μg/rat, i.t. from 1 to 30 mg/kg, i.p.) on time-course of vocalization threshold to paw pressure. The results obtained on healthy animals are given on FIG. 1. They are expressed by the time course curves of means+/-SEM of vocalization threshold in grams (n=6-8 rats per group) (A) or by the area under the curve (B). Morphine (10 μg/rat, i.t.) is used as a positive control. […] FIG. 4 illustrates the effect of intrathecal administration of derivative 2 on the vocalization threshold to paw pressure in the CCI neuropathic pain model (effect of derivative 2 (1, 5, 10 μg/rat, i.t.) on time-course of vocalization threshold to paw pressure). Gabapentin (100 mg/kg, p.o.) is used as a positive control. […] The effect of intrathecal administration of derivative 2 (10 μg/rat, i.t.) on the vocalization threshold to paw pressure in the CCI neuropathic pain model after mGluR4 or mismatch ODN treatment is illustrated by FIG. 4. […] The animals were submitted to the paw pressure test previously described by Randall and Selitto (1957). Nociceptive thresholds, expressed in grams (g), were measured with a Ugo Basile analgesimeter (Apelex, tip diameter of the probe: 1 mm, weight: 30 g) by applying an increasing pressure to the right hind paw of rats until a squeak (vocalization threshold) was obtained (cut-off was 750 g except carrageenan treated animals for which the cut-off was 500 g). The treatments were done after the measurement of two consecutive stable vocalization threshold values and their effects were assessed 15, 30, 45, 60, 90, and 120 min after. Unilateral peripheral mononeuropathy was induced according to the method described by Bennett and Xie (1988). Briefly, after determining vocalization thresholds, rats were anesthetized with sodium pentobarbital (50 mg/kg i.p.) and four chromic gut (5-0) ligatures were tied loosely (with about 1-mm spacing) around the right common sciatic nerve. The nerve was constricted to a barely discernible degree, so that circulation through the epineurial vasculature was not interrupted. Only animals presenting a decrease ≧15% of the presurgery value of vocalization threshold were selected, i.e., 90% of ligated animals (presurgery value: 379±7 g, pre-drug value: 188±7 g). Intrathecal injections were performed, under isoflurane anesthesia (4% induction, 2% maintenance), as previously described (Mestre et al., 1994). Briefly, the anesthetized rat was held in one hand by the pelvic girdle and a 25-gauge X1-inch needle connected to a 25 μL Hamilton syringe was inserted into the subarachnoidal space between lumbar vertebrae L5 and L6, until a tail flick was elicited. The syringe was held in position for few seconds after the injection of a volume of 10 μL/rat. AS ODN was designed based on rat mGluR4 sequence in regions lacking known splice variants. […]. One ODN with scramble arrangement in the base composition compared to the 18-mer specific as was used as control for sequence-independent effects of ODN treatments. […] Pain scores were determined using standard methods in strict conformity with ethical standards (Zimmermann M., 1983) before ODN treatments and then on day 4 in the afternoon. […]

Chain of mGlu6 (O15303 25-877): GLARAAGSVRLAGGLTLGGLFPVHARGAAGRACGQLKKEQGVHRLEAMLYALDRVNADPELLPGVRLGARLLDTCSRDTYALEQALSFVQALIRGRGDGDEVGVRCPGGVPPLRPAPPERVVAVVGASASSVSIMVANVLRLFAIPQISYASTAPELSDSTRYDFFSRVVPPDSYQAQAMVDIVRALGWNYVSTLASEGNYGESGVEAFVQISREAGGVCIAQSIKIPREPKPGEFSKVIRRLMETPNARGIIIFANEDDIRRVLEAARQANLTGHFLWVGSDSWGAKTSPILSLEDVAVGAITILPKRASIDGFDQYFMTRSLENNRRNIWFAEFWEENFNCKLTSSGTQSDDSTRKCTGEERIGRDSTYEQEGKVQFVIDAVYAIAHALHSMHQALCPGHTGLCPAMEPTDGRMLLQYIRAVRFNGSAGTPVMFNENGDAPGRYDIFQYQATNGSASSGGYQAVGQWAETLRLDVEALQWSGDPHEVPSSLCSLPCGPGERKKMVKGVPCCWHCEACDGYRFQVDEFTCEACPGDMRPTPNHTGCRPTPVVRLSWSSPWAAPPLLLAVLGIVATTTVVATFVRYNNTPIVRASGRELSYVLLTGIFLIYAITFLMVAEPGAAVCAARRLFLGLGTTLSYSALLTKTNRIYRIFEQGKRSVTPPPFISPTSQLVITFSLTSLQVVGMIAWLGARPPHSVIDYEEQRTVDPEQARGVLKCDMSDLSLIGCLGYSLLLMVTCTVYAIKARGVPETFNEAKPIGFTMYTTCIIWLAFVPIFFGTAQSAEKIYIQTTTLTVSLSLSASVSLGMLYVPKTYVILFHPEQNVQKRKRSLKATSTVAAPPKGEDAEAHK

EC50 (mGlu6): 4.2 ± 0.6 µM
Structure (SMILES): N[C@@H](CCP(=O)(O)C(O)c1ccc(OCC(=O)O)cc1)C(=O)O (stereo partly drawn) [Derivative 2, [((3S)-3-Amino-3-carboxy)propyl][(4-(carboxymethoxy)phenyl)hydroxymethyl]phosphinic Acid]
antihyperalgesic effect in mice lacking mGluR4 receptor versus wild-type littermates ([1]; 10 μg/mice i.t.): significantly decreased in mice lacking mGluR4 receptor; also recorded: profoundly impaired | mechanical hypersensitivity measured using Von Frey filaments ([1]; C57BL6 mice, i.t.): dose-dependently reduced the mechanical hypersensitivity | antihyperalgesic effect on vocalization threshold to paw pressure ([2]; CCI neuropathic pain, rats, 1-10 μg/rat i.t.): abolishes the excess of mechanical pain | antihyperalgesic effect after antisense oligonucleotides against mGlu4 ([2]; CCI neuropathic rats, 10 μg/rat i.t., versus saline or mismatch ODN): significantly reduced | mechanical antihyperalgesia after knockdown of spinal mGlu4 expression by antisense oligonucleotides ([2]; FIG. 7 legend, model not named): reduces mechanical antihyperalgesia | antihyperalgesic effect compared to gabapentine ([2]; neuropathy model, gabapentine 100 mg/kg per os as control): significantly higher than the one of gabapentine
